Measured values as given in patent publication US10413504B2, “Intravaginal ring drug delivery system” (Merck Sharp & Dohme B.V., priority 2013, dated 2019).

Assay: ENG and E2 solubility, diffusion coefficient and permeability in EVA copolymers (two-layer polymer slab, fit with Fick's 2nd law)
Conditions: ENG
Description: For the determination of the solubility concentration and diffusion coefficient a method was developed. The method consists in preparing polymer slab composites with one layer highly loaded with active ingredient (60 wt %) on top of a layer of placebo polymer. The two layers were first pressed separately in a hot press and thereafter combined, also using the press, into a two layer structure. The diffusion of the active ingredient from the loaded layer through the placebo layer is measured in time, for the active ingredient/polymer combination adequate analysis method. Thereafter the experimental diffusion data is fitted with a mathematical model based on Fick's 2nd law of diffusion in one direction. The differential equation is solved using trigonometrical series with the solubility concentration and diffusion coefficient as only unknown variables.

Cs (solubility in EVA copolymer) (VA % 9): 0.4 mg/g | D (diffusion coefficient in EVA copolymer) (VA % 9): 2.29 ×10^−13 m^2/s | Cs (solubility in EVA copolymer) (VA % 15): 0.9 mg/g | D (diffusion coefficient in EVA copolymer) (VA % 15): 3.17 ×10^−13 m^2/s | Cs (solubility in EVA copolymer) (VA % 28): 3.22 mg/g | D (diffusion coefficient in EVA copolymer) (VA % 28): 4.80 ×10^−13 m^2/s
Structure (SMILES): C#C[C@]1(O)CC[C@H]2[C@@H]3CCC4=CC(=O)CC[C@@H]4[C@H]3C(=C)C[C@@]21CC [ENG, etonogestrel]
